{"source": "patent US20230405007A1", "about": "“COMPOUND FOR USE IN AND METHODS OF TREATMENT OF FIBROTIC DISEASES” (Galapagos NV, priority 2020, published 2023)", "system": "subjects with idiopathic pulmonary fibrosis (IPF)", "assay": "Phase II randomized, double-blind, placebo-controlled IPF clinical study: monitoring of adverse events (SAEs, TEAEs)", "format": "in vivo, human", "conditions": "for Subjects with Serious TEAE / Subjects with TEAE leading to treatment discontinuation (LD): 100 mg orally once daily, 26 weeks", "text": "The study of the current example was a randomized, double-blind, parallel group, placebo-controlled, multicenter, Phase II study to evaluate the efficacy, safety and tolerability of Compound 1 in subjects with idiopathic pulmonary fibrosis (IPF). The primary objective of this study was to evaluate the efficacy of Compound 1 treatment in subjects with IPF on pulmonary function as evaluated by FVC compared to placebo over 26 weeks.\nThe study provided for 2 types of interventions: • Drug: Compound 1—100 mg administered orally once daily as 2 capsules of 50 mg with or without food • Drug: Compound 1 placebo—administered orally once daily as 2 capsules with or without food\nStudy participants were randomized over 2 study arms: • 1. Experimental: Compound 1: Compound 1 100 mg, for 26 weeks • 2. Placebo Comparator: Placebo: Compound 1 placebo for 26 weeks\nTo be eligible, the subjects met the following criteria: • Males or females of non-child-bearing potential, aged ≥40 years. • A diagnosis of IPF within 5 years prior to the screening visit as per American Thoracic Society (ATS)/European Respiratory Society (ERS)/Japanese Respiratory Society (JRS)/Latin American Thoracic Association (ALAT) guidelines. • Meeting all of the following criteria at screening and during the screening period: • FVC≥50% predicted of normal • Disease progression in the last 9 months prior to the screening period and at screening, defined as at least one prescreening FVC value and screening value with a decline of FVC (% predicted or mL), at the investigator's discretion • Diffusing capacity for the lungs for carbon monoxide (DLCO)≥30% predicted of normal (corrected for hemoglobin) • Ratio of forced expiratory volume in one second (FEV1) to FVC≥0.70 • In a stable condition and suitable for study participation based on the results of a medical history, physical examination, vital signs, 12-lead ECG, and laboratory evaluation. Stable condition is based on the clinical judgment of the investigator, co-morbidities should be treated according to the local applicable guidelines. Concomitant medication for comorbidities should be stabilized from 4 weeks before screening and during the screening period (stable defined as no change of dose or regimen). • Estimated minimum life expectancy of 12 months for non-IPF related disease in the opinion of the investigator. • Male subjects with female partners of child bearing potential are willing to comply with the contraceptive methods described in the respective protocol prior to the first dose of the IMP, during the clinical study, and for at least 12 weeks after the last dose of the IMP. • Able to walk at least 150 meters during the 6MWT at screening; without having a contraindication to perform the 6MWT. • Able to understand the importance of adherence, and willing to comply to study treatment, study procedures and requirements as per study protocol, including the concomitant medication restrictions. […]", "key": {"[1]": {"conditions": "Summary All (N = 68, both arms)"}, "[2]": {"conditions": "background therapy Nintedanib (N = 24, both arms)"}, "[3]": {"conditions": "background therapy None (N = 25, both arms)"}, "[4]": {"conditions": "background therapy Pirfenidone (N = 19, both arms)"}}, "data": [{"smiles": "O=c1nc(OC[C@@H]2COCCO2)cc2n1CCc1cc(C#CC3CC3)ccc1-2", "note": "[GLPG1205, 9-Cyclopropylethynyl-2-((S)-1-[1,4]dioxan-2-ylmethoxy)-6,7-dihydro-pyrimido[6,1-a]iso quinolin-4-one]", "values": [{"measurement": "Subjects with Serious TEAE", "setting": "[1]", "result": 9, "unit": "n"}, {"measurement": "Subjects with TEAE leading to treatment discontinuation (LD)", "setting": "[1]", "result": 10, "unit": "n"}, {"measurement": "Subjects with Serious TEAE", "setting": "[2]", "result": 7, "unit": "n"}, {"measurement": "Subjects with TEAE leading to treatment discontinuation (LD)", "setting": "[2]", "result": 6, "unit": "n"}, {"measurement": "Subjects with Serious TEAE", "setting": "[3]", "result": 2, "unit": "n"}, {"measurement": "Subjects with TEAE leading to treatment discontinuation (LD)", "setting": "[3]", "result": 2, "unit": "n"}, {"measurement": "Subjects with Serious TEAE", "setting": "[4]", "result": 0, "unit": "n"}, {"measurement": "Subjects with TEAE leading to treatment discontinuation (LD)", "setting": "[4]", "result": 2, "unit": "n"}, {"measurement": "serious adverse events (SAEs) and/or treatment emergent adverse events (TEAEs)", "setting": "administered in combination with or alongside nintedanib", "result": "increased"}]}]}
